We go through five compounds from article PMC11187217, “Anti-adhesive, anti-biofilm and fungicidal action of newly synthesized gemini quaternary ammonium salts” (Scientific Reports, 2024).

The subject of data set [1] is sheep erythrocytes. Briefly: Hemolysis test. The class given is cell-based. Conditions: 1.5 h, 37 °C; for Hemolytic effect on sheep erythrocytes: tested 2.5–1280 µM; for Concentration up to which no hemolysis was caused: sheep erythrocytes. On the procedure:
The hemolysis test was performed based on the Obłąk et al.[80] method with modification. Sheep blood (5 cm^3) was centrifuged (699 rcf, 15 min), washed several times with PBS buffer (pH 7.4), and suspended in PBS. […] The positive control was 1% SDS and the negative control was PBS. The plates were incubated for 1.5 h at 37 °C. After incubation, the plates were centrifuged (699 rcf, 15 min) and the supernatant was applied to a new titration plate. Absorbance was measured at λ = 540 nm (BioTek 800 TS Absorbance Reader). The experiment was performed in 4 repetitions.

The test system of data set [2] is C. albicans ATCC 10231. Briefly: Adhesion of C. albicans to silicone surface. The class given is cell-based, Candida albicans. The method, then: (§1) The effect of gemini QAS on the adhesion of C. albicans ATCC 10231 was determined using a modification of the method of Obłąk et al.. […] After incubation, the culture was centrifuged (1000 rcf, 5 min), and the resulting pellet was suspended in PBS (pH 7.4) until OD = 0.8 (λ = 590 nm). • In the case of testing the polystyrene surface, 100 µl of tested gemini QAS at concentrations of 20–1280 µM was added to the wells of a 96-well titration plate, incubated for 2 h at 37 °C, rinsed with sterile distilled water, and then spotted with 100 µl of the obtained culture and incubated at 37 °C for 4 h. After this time, the culture was removed, the plates were rinsed with sterile distilled water and placed in an oven (60 °C, 20 min). Then, crystal violet (0.1%) was added to the wells of the titration plate, stained for 5 min and rinsed with sterile distilled water until all traces of violet were removed from the rinsed water. Then the washing mixture (1% SDS, 50 mmol HCl, 100% isopropanol) was added. The absorbance of the samples was read using a spectrophotometer (BioTek 800 TS Absorbance Reader) at λ = 590 nm. The positive control was the culture wells to which the tested gemini QAS were not added, and the negative control was the medium. The experiment was performed in 3 repetitions. • When the tested surface was stainless steel (round washers Ø 0.4 cm), silicone (0.5 cm long fragments of Foley catheters) or glass (1 cm^2 coverslips), the tested materials were incubated for 2 h at 37 °C with shaking (100 rpm) in the presence of the tested gemini QAS at concentrations of 80–640 µM. Then, the materials were rinsed with sterile distilled water, transferred to tubes with culture and incubated for 4 h at 37 °C with shaking (100 rpm). After incubation, the materials were rinsed with sterile distilled water. […] Next, the washing mixture (1% SDS, 50 mmol HCl, 100% isopropanol) was added and the absorbance of the samples was read using a spectrophotometer (BioTek 800 TS Absorbance Reader) at λ = 590 nm. […] After this time, the colonies growing on the plates were counted. […]

Data set [3] relates to C. albicans ATCC 10231 biofilm. Description: Biofilm viability (LIVE/DEAD, confocal microscopy). The class given is cell-based, Candida albicans. The conditions noted are these: glass surface, SYTO 9 / propidium iodide. The method, then: The viability of the biofilm formed by C. albicans ATCC 10231 cells was determined using the Filmtracer LIVE/DEAD Biofilm Viability Kit (Invitrogen).
The C. albicans culture was incubated in YPG medium at 37 °C for 18 h. After incubation, the culture was centrifuged (1000 rcf, 5 min), and the resulting pellet was suspended in PBS (pH 7.4) to obtain an OD = 1.5 (λ = 590 nm). 100 µl of C. albicans cell suspension was placed into the wells of the chamber slide plate and incubated for 24 h at 37 °C. After this time, the culture was removed and the plate was rinsed with sterile mQ water. Then, 200 µl of selected tested surfactants in appropriate concentrations was added to each well and incubated for 4 h. After incubation, the plate was rinsed with PBS, 100 µl of the LIVE/DEAD probe was added, and it was incubated for 30 min in the dark. After this time, the probe was removed and the wells were rinsed twice with PBS. Then, 100 µl of 4% formaldehyde in PBS (pH 7.0) was added and it was incubated for 30 min in the dark. Formaldehyde was removed and the wells were rinsed twice with PBS. After peeling off the walls of the plate, a drop of 50% glycerol in PBS was placed on each field and a glass slide was placed on it. The viability of the biofilm formed by C. albicans cells was imaged using a confocal microscope. The negative control was PBS.

Data set [4] deals with C. albicans ATCC 10231. Briefly: Adhesion of C. albicans to glass surface. Format: cell-based, Candida albicans. The conditions noted are these: 640 µM. On the procedure: as §1, with “nm.” for “nm. The positive control was the culture wells to which the tested gemini QAS were not added, and the negative control was the medium. The experiment was performed in 3 repetitions. • When the tested surface was stainless steel (round washers Ø 0.4 cm), silicone (0.5 cm long fragments of Foley catheters) or glass (1 cm^2 coverslips), the tested materials were incubated for 2 h at 37 °C with shaking (100 rpm) in the presence of the tested gemini QAS at concentrations of 80–640 µM. Then, the materials were rinsed with sterile distilled water, transferred to tubes with culture and incubated for 4 h at 37 °C with shaking (100 rpm). After incubation, the materials were rinsed with sterile distilled water.”

The mark [5] stands for this setting: concentration not stated (tested 80–640 µM).

SMILES strings stand for the structures. Bounds are passed on as bounds.

Consider `CCCCCCCCCCCC(=O)N(CCCN(CCC[N+](C)(C)C)C(=O)CCCCCCCCCCC)CCC[N+](C)(C)C` [2xC12MeCO3G3, dimethyl{{3-[N-(3-{N-[3-(dimethylammonium)propyl]dodecylamido}propyl}dodecylamido}propyl}}ammonium dimethylcarbonate], for which the “Hemolytic effect on sheep erythrocytes” value was “did not cause hemolysis” in data set [1] and “no hemolytic effect” in data set [1] (listed as dimethylcarbonate with 12-carbon alkyl chains). The “Reduction of adhesion of C. albicans cells to silicone” value (from here on “Reduction of adhesion … to silicone”) in data set [2] (setting [5]) is given as 80–90%.
For `CCCCCCCCCCCCCCCC(=O)N(CCCN(CCC[N+](C)(C)C)C(=O)CCCCCCCCCCCCCCC)CCC[N+](C)(C)C` [2xC16BrG3], in data set [1], the “Concentration up to which no hemolysis was caused” value is given as not above 80 µM. Moreover, the “Impact on survival of C. albicans biofilm (membrane integrity)” value in data set [3] was “strong impact”.
Regarding `CCCCCCCCCCCCCCCC(=O)N(CCCN(CCC[N+](C)(C)C)C(=O)CCCCCCCCCCCCCCC)CCC[N+](C)(C)C` [2xC16MeCO3G3, dimethyl{{3-[N-(3-{N-[3-(dimethylammonium)propyl]hexadecylamido}propyl}hexadecylamido}propyl}}ammonium dimethylcarbonate], the “Concentration up to which no hemolysis was caused” value in data set [1] is on record as not above 80 µM. Moreover, in data set [2] (setting [5]), the “Reduction of adhesion … to silicone” value is 80–90%.
Turning to `CCCCCCCCCCCCCCCC(=O)N(CCCN(CCC[N+](C)(C)C)C(=O)CCCCCCCCCCCCCCC)CCC[N+](C)(C)C` [2xC16LaG3], the “Concentration up to which no hemolysis was caused” value in data set [1] is recorded as not above 40 µM. Moreover, the “Reduction of adhesion … to silicone” value in data set [2] (640 µM) is on record as “completely reduced the adhesion”.
As to `CCCCCCCCCCCC(=O)N(CCCN(CCC[N+](C)(C)C)C(=O)CCCCCCCCCCC)CCC[N+](C)(C)C` [2xC12BrG3], the “Concentration up to which no hemolysis was caused” value in data set [1] was not above 20 µM. For the same compound, in data set [4], the “Reduction of adhesion of C. albicans cells to glass” value is listed as “approximately 80%”.
